{"source": "patent US10258617B2", "about": "“Dosing regimens for fast onset of antidepressant effect” (H. Lundbeck A/S, priority 2016, dated 2019)", "key": {"[1]": {"system": "patients with recurrent major depressive disorder", "assay": "Example 3 clinical trial: MADRS and CGI-I efficacy;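 for Change in 5-item MADRS score, Difference: apparent sadness Reported sadness Inner tension Pessimistic thoughts Suicidal thoughts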;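 for Change in 5-item MADRS score, Mean: apparent sadness Reported sadness Inner tension Pessimistic thoughts Suicidal thoughts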", "type": "in vivo, human", "conditions": "for Change in 5-item MADRS score, Mean / Change in MADRS total score, Mean: VOR IV (17 mg day 0) + VOR oral (10 mg/day), N 27; for Change in 5-item MADRS score, Difference / Change in MADRS total score, Difference: VOR IV + VOR oral versus PBO IV + VOR oral; for % responders (CGI-I ≤ 2) / % responders (≥50% reduction on MADRS Scale): VOR IV + VOR oral", "description": "In particular, a total of 55 patients (27 and 28 in each treatment group) were recruited to an interventional, prospective, multi-national, multi-site, randomised, double-blind, parallel-group, fixed-dose study.\nThe study consisted of a Screening Period—2 to 14-day period from screening to randomisation, a Treatment Period—15-day double-blind treatment period with one initial IV administration of 17 mg vortioxetine or saline and daily oral treatment with vortioxetine 10 mg and a Safety Follow-up Period—4-week period after end of treatment or after withdrawal from the study.\nAt the Baseline Visit, patients were equally randomised (1:1) to either of the following two dose regimens: vortioxetine 17 mg single dose (IV) and vortioxetine 10 mg/day (tablet) or placebo single dose (IV) and vortioxetine 10 mg/day (tablet).\n(§1) Patients randomised to the vortioxetine IV dose regimen, received a single double-blind IV dose of 17 mg vortioxetine, infused over 2 hours, on Day 0 (baseline). Patients randomised to the vortioxetine oral dose regimen received a single double-blind IV dose of placebo (saline), infused over 2 hours, on Day 0. From Day 0 to Day 14, all patients in both treatment groups also received open labelled 10 mg/day vortioxetine by oral administration (tablets).\nFollowing the IV infusion, patients stayed hospitalised for approximately 24 hours for close observation. After the hospitalisation period, patients continued the study on an outpatient basis.\nEfficacy and safety data were collected at Days 0, 1, 3, 7, and 14, including MADRS and clinical global impression […].\nThe full MADRS scale may not be a suitable tool for gauging the early onset of anti-depressant effect of a drug because some of the ten items addressed in the MADRS test may require longer assessment time to validly assess a given symptom. For example, the MADRS item “Concentration Difficulties” requires that the patient has been exposed to a situation during the treatment where a change in the ability to concentrate could be identified in order for that item to truly reflect a treatment effect."}, "[2]": {"assay": "Example 3 clinical trial: vortioxetine plasma levels and simulated AUC0-24", "type": "in vivo", "conditions": "human, other: intravenous infusion plus oral tablets", "description": "as §1\nThe popPK model from example 2 was used to simulate vortioxetine plasma levels based on the observed data from Table 5. […] That is, the steady-state plasma level of vortioxetine achieved from the combined IV and oral vortioxetine administration the within 24 hours from the first dosing is essentially the same as the steady-state vortioxetine plasma level achieved at day 14 following the administration of once-daily oral vortioxetine alone in that period."}, "5-HT1B receptor": {"target": "T1, 5-HT1B receptor (Macaca mulatta, UniProt F6SFA9)", "T1 construct": "assess changes in the endogenous serotonin concentration in living rhesus monkeys; from tissue; host or cells: brain of living rhesus monkeys (PET)", "T1 sequence (F6SFA9 1-390)": "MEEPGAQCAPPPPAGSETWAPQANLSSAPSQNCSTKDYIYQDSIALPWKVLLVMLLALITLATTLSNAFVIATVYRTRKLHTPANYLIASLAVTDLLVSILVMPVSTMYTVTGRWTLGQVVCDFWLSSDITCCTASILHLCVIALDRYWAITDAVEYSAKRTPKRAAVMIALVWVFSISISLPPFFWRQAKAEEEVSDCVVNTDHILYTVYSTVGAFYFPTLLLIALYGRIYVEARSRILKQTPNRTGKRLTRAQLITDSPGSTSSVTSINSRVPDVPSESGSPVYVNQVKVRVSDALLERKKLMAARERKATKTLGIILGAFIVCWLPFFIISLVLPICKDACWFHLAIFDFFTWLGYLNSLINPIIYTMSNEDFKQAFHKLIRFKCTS", "assay": "Example 1 PET monkey study: change in [11C]AZ10419369-5-HT1B receptor binding potential (BPND)", "type": "in vivo, rhesus monkeys", "conditions": "rhesus monkey, iv, mean±standard error, n=3, read-out: ΔBPND (% of baseline); for change in vivo at 0.3 mg/kg: Vortioxetine 0.3 mg/kg IV; for change in vivo at 1 mg/kg: Vortioxetine 1.0 mg/kg IV", "excerpt": "(§2) Positron Emission Tomography (PET) was used to assess changes in the endogenous serotonin concentration in living rhesus monkeys. The objective of the present study was two-fold. […] The chemical name for [^11C]MADAM is [^11C] N,N-dimethyl-2-(2-amino-4-methylphenylthio)benzylamine.\n(§3) FIG. 1 illustrates the study design used for assessment of serotonin releasing capacities. A similar study design was applied for assessment of SERT occupancy."}, "[3]": {"target": "T2, serotonin transporter (SERT) (Macaca mulatta, UniProt Q9MYX0)", "T2 construct": "serotonin transporter occupancy in the monkey brain using the SERT radio-ligand; from tissue; host or cells: brain of living rhesus monkeys (PET)", "T2 sequence (Q9MYX0 whole entry)": "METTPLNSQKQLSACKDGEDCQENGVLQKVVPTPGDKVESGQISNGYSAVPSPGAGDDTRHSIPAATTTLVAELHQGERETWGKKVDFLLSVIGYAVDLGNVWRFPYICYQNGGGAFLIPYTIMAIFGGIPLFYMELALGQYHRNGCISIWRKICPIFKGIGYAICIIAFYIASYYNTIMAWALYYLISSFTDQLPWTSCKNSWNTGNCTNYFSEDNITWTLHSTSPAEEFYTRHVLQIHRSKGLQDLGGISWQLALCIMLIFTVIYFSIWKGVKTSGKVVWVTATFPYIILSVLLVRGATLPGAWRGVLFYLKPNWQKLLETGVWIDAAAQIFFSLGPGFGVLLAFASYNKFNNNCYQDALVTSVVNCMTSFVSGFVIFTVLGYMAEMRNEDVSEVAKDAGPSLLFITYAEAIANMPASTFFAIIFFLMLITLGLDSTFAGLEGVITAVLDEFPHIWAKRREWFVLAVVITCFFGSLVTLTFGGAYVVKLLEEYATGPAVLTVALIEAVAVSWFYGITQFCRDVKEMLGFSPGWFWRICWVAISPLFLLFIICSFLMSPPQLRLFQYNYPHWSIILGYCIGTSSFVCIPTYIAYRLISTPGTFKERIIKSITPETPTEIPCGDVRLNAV", "assay": "Example 1 PET monkey study: SERT occupancy with [11C]MADAM", "type": "in vivo, rhesus monkeys", "conditions": "rhesus monkey, iv, monkey brain", "excerpt": "as §2, §3"}, "[4]": {"conditions": "cited from earlier work"}, "depression": {"system": "depression", "conditions": "FDA label of July 2014; oral treatment; cited from earlier work"}}, "note": "Where two headings read alike, the source gives them in different places.", "data": [{"smiles": "Cc1ccc(Sc2ccccc2N2CCNCC2)c(C)c1", "note": "[VOR IV + VOR oral]", "values": [{"measurement": "Change in 5-item MADRS score, Mean", "setting": "[1]; Day 1", "result": "−5.05"}, {"measurement": "Change in MADRS total score, Mean", "setting": "[1]; Day 1", "result": "−6.9"}, {"measurement": "Change in 5-item MADRS score, Mean", "setting": "[1]; Day 3", "result": "−6.96"}, {"measurement": "Change in MADRS total score, Mean", "setting": "[1]; Day 3", "result": "−12.1"}, {"measurement": "Change in 5-item MADRS score, Mean", "setting": "[1]; Day 7", "result": "−8.30"}, {"measurement": "Change in MADRS total score, Mean", "setting": "[1]; Day 7", "result": "−13.7"}, {"measurement": "Change in 5-item MADRS score, Mean", "setting": "[1]; Day 14", "result": -9.37}, {"measurement": "Change in 5-item MADRS score, Difference", "setting": "[1]; Day 1", "result": "−1.13"}, {"measurement": "Change in MADRS total score, Difference", "setting": "[1]; Day 1", "result": "−1.4"}, {"measurement": "Change in 5-item MADRS score, Difference", "setting": "[1]; Day 3", "result": "−0.96"}, {"measurement": "Change in MADRS total score, Difference", "setting": "[1]; Day 3", "result": "−1.7"}, {"measurement": "Change in 5-item MADRS score, Difference", "setting": "[1]; Day 7", "result": "−1.27"}, {"measurement": "Change in MADRS total score, Difference", "setting": "[1]; Day 7", "result": "−0.3"}, {"measurement": "Change in 5-item MADRS score, Difference", "setting": "[1]; Day 14", "result": "−0.16"}, {"measurement": "% responders (CGI-I ≤ 2)", "setting": "[1]; Day 1", "result": 18.5, "unit": "%"}, {"measurement": "% responders (≥50% reduction on MADRS Scale)", "setting": "[1]; Day 1", "result": 3.7, "unit": "%"}, {"measurement": "% responders (CGI-I ≤ 2)", "setting": "[1]; Day 3", "result": 50.0, "unit": "%"}, {"measurement": "% responders (≥50% reduction on MADRS Scale)", "setting": "[1]; Day 3", "result": 29.6, "unit": "%"}, {"measurement": "% responders (CGI-I ≤ 2)", "setting": "[1]; Day 7", "result": 53.8, "unit": "%"}, {"measurement": "% responders (≥50% reduction on MADRS Scale)", "setting": "[1]; Day 7", "result": 40.7, "unit": "%"}, {"measurement": "% responders (CGI-I ≤ 2)", "setting": "[1]; Day 14", "result": 73.1, "unit": "%"}, {"measurement": "% responders (≥50% reduction on MADRS Scale)", "setting": "[1]; Day 14", "result": 48.1, "unit": "%"}, {"measurement": "concentration at 2 h", "setting": "[2]; VOR IV + VOR oral, Day 0, 2 hours", "result": "0.0111 ± 0.0093", "unit": "µg/mL"}, {"measurement": "concentration at 8 h", "setting": "[2]; VOR IV + VOR oral, Day 0, 8 hours", "result": "0.011 ± 0.0029", "unit": "µg/mL"}, {"measurement": "concentration at 24 h", "setting": "[2]; VOR IV + VOR oral, Day 0, 24 hours", "result": "0.0086 ± 0.0026", "unit": "µg/mL"}, {"measurement": "concentration at 14 day", "setting": "[2]; VOR IV + VOR oral, Day 14", "result": "0.0108 ± 0.007", "unit": "µg/mL"}, {"measurement": "AUC(0-t)", "setting": "[2]; day 0, VOR IV+VOR oral treated patients, popPK simulation based on observed data", "result": "0.251 ± 0.046", "unit": "µg·h/mL"}]}, {"smiles": "Cc1ccc(Sc2ccccc2N2CCNCC2)c(C)c1", "note": "[Vortioxetine, 1-[2-(2,4-dimethyl-phenylsulfanyl)-phenyl]piperazine]", "values": [{"measurement": "change in vivo at 0.3 mg/kg", "setting": "5-HT1B receptor; Amygdala", "result": "-12.4 ± 10.5", "unit": "%"}, {"measurement": "change in vivo at 1 mg/kg", "setting": "5-HT1B receptor; Amygdala", "result": "-39.5 ± 11.5", "unit": "%"}, {"measurement": "change in vivo at 0.3 mg/kg", "setting": "5-HT1B receptor; Caudate nucleus", "result": "-23.2 ± 7.4", "unit": "%"}, {"measurement": "change in vivo at 1 mg/kg", "setting": "5-HT1B receptor; Caudate nucleus", "result": "-47 ± 8", "unit": "%"}, {"measurement": "change in vivo at 0.3 mg/kg", "setting": "5-HT1B receptor; Dorsal raphe nucleus", "result": "-28.3 ± 13.6", "unit": "%"}, {"measurement": "change in vivo at 1 mg/kg", "setting": "5-HT1B receptor; Dorsal raphe nucleus", "result": "-55 ± 3.3", "unit": "%"}, {"measurement": "change in vivo at 0.3 mg/kg", "setting": "5-HT1B receptor; Frontal gyrus", "result": "-8.2 ± 8.2", "unit": "%"}, {"measurement": "change in vivo at 1 mg/kg", "setting": "5-HT1B receptor; Frontal gyrus", "result": "-32.8 ± 9.5", "unit": "%"}, {"measurement": "change in vivo at 0.3 mg/kg", "setting": "5-HT1B receptor; Globus pallidus", "result": "-16.3 ± 5.1", "unit": "%"}, {"measurement": "change in vivo at 1 mg/kg", "setting": "5-HT1B receptor; Globus pallidus", "result": "-41.2 ± 6.4", "unit": "%"}, {"measurement": "change in vivo at 0.3 mg/kg", "setting": "5-HT1B receptor; Hippocampus", "result": "-9.4 ± 8.9", "unit": "%"}, {"measurement": "change in vivo at 1 mg/kg", "setting": "5-HT1B receptor; Hippocampus", "result": "-27 ± 6.8", "unit": "%"}, {"measurement": "change in vivo at 0.3 mg/kg", "setting": "5-HT1B receptor; Midbrain", "result": "-21.9 ± 3", "unit": "%"}, {"measurement": "change in vivo at 1 mg/kg", "setting": "5-HT1B receptor; Midbrain", "result": "-49.4 ± 7.1", "unit": "%"}, {"measurement": "change in vivo at 0.3 mg/kg", "setting": "5-HT1B receptor; Occipital gyrup", "result": "-24.3 ± 3.2", "unit": "%"}, {"measurement": "change in vivo at 1 mg/kg", "setting": "5-HT1B receptor; Occipital gyrup", "result": "-54.1 ± 4.2", "unit": "%"}, {"measurement": "change in vivo at 0.3 mg/kg", "setting": "5-HT1B receptor; Putamen", "result": "-15.6 ± 8.5", "unit": "%"}, {"measurement": "change in vivo at 1 mg/kg", "setting": "5-HT1B receptor; Putamen", "result": "-40.8 ± 7.9", "unit": "%"}, {"measurement": "change in vivo at 0.3 mg/kg", "setting": "5-HT1B receptor; Thalamus", "result": "-23.9 ± 5", "unit": "%"}, {"measurement": "change in vivo at 1 mg/kg", "setting": "5-HT1B receptor; Thalamus", "result": "-42.5 ± 7", "unit": "%"}, {"measurement": "change in vivo at 0.3 mg/kg", "setting": "5-HT1B receptor; Ventral striatum", "result": "-25.6 ± 5.4", "unit": "%"}, {"measurement": "change in vivo at 1 mg/kg", "setting": "5-HT1B receptor; Ventral striatum", "result": "-47.7 ± 8.5", "unit": "%"}, {"measurement": "receptor occupancy at 0.3 mg/kg", "setting": "[3]; vortioxetine 0.3 mg/kg intravenously", "result": "~50", "unit": "%"}, {"measurement": "receptor occupancy at 1 mg/kg", "setting": "[3]; vortioxetine 1.0 mg/kg intravenously", "result": "~80", "unit": "%"}, {"measurement": "steady-state plasma level (median AUC0-24)", "setting": "[4]; once daily oral 5 mg", "result": 0.161, "unit": "µg·h/mL"}, {"measurement": "steady-state plasma level (median AUC0-24)", "setting": "[4]; once daily oral 10 mg", "result": 0.323, "unit": "µg·h/mL"}, {"measurement": "steady-state plasma level (median AUC0-24)", "setting": "[4]; once daily oral 15 mg", "result": 0.484, "unit": "µg·h/mL"}, {"measurement": "steady-state plasma level (median AUC0-24)", "setting": "[4]; once daily oral 20 mg", "result": 0.645, "unit": "µg·h/mL"}, {"measurement": "time until steady-state plasma concentration is achieved", "setting": "[4]; once daily oral administration", "result": "approximately 8 days"}, {"measurement": "effect of vortioxetine is observed starting at week", "setting": "depression", "result": 2, "unit": "week"}, {"measurement": "full antidepressant effect not seen until week", "setting": "depression", "result": "≥ 4", "unit": "week"}]}]}
